Test results from the supplement of paper PMC10307832.

What was measured:
Test in all cases: relative viability (nuclei count vs DMSO), 5 days (fraction); higher = more cells survive
[1] = compound: CN(C)C/C=C/C(=O)Nc1cc2c(Nc3ccc(F)c(Cl)c3)ncnc2cc1O[C@H]1CCOC1 [Afatinib] + CS(=O)(=O)N1CCN(Cc2cc3nc(-c4cccc5[nH]ncc45)nc(N4CCOCC4)c3s2)CC1 [Pictilisib] (partner 1 µM)
In short: (§1)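 Relative viability divides the nuclei count in treated wells by that in vehicle wells. Lung cancer cell lines were seeded in 1536-well plates, dosed by pin tool the next day, and fixed and stained after 5 days in one step with final 0.05% Triton X-100, 1% formaldehyde and 1 ug/ml Hoechst. Dosing was a single drug or a fixed anchor-drug dose plus five library-drug doses (not always all listed) in √10 steps, and values are medians of duplicate plates imaged at 4×.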

[2] = compound: CN(C)C/C=C/C(=O)Nc1cc2c(Nc3ccc(F)c(Cl)c3)ncnc2cc1O[C@H]1CCOC1 [Afatinib] + CC(=O)c1c(C)c2cnc(Nc3ccc(N4CCNCC4)cn3)nc2n(C2CCCC2)c1=O [Palbociclib] (partner 0.5 µM)
In short: as §1

[3] = compound: CN(C)C/C=C/C(=O)Nc1cc2c(Nc3ccc(F)c(Cl)c3)ncnc2cc1O[C@H]1CCOC1 [Afatinib] + COc1cccc2cc(-c3nc([C@H]4CC[C@H](C(=O)O)CC4)n4ncnc(N)c34)[nH]c12 [OSI-027] (partner 0.5 µM)
In short: as §1

[4] = compound: CN(C)C/C=C/C(=O)Nc1cc2c(Nc3ccc(F)c(Cl)c3)ncnc2cc1O[C@H]1CCOC1 [Afatinib] + CCNC(=O)c1noc(-c2cc(C(C)C)c(O)cc2O)c1-c1ccc(CN2CCOCC2)cc1 [Luminespib] (partner 0.01 µM)
In short: as §1

| Cell Line | relative viability ([1]; first compound 0.005 µM) | relative viability ([1]; first compound 0.01581 µM) | relative viability ([1]; first compound 0.05 µM) | relative viability ([1]; first compound 0.1581 µM) | relative viability ([1]; first compound 0.5 µM) | relative viability ([2]; first compound 0.005 µM) | relative viability ([2]; first compound 0.01581 µM) | relative viability ([2]; first compound 0.05 µM) | relative viability ([2]; first compound 0.1581 µM) | relative viability ([2]; first compound 0.5 µM) | relative viability ([3]; first compound 0.005 µM) | relative viability ([3]; first compound 0.01581 µM) | relative viability ([3]; first compound 0.05 µM) | relative viability ([3]; first compound 0.1581 µM) | relative viability ([3]; first compound 0.5 µM) | relative viability ([4]; first compound 0.005 µM) | relative viability ([4]; first compound 0.01581 µM) | relative viability ([4]; first compound 0.05 µM) | relative viability ([4]; first compound 0.1581 µM) | relative viability ([4]; first compound 0.5 µM) |
| --- | --- | --- | --- | --- | --- | --- | --- | --- | --- | --- | --- | --- | --- | --- | --- | --- | --- | --- | --- | --- |
| HCC-827 | 0.295 | 0.324 | 0.312 | 0.37 | 0.226 | 0.158 | 0.139 | 0.164 | 0.171 | 0.136 | 0.159 | 0.122 | 0.153 | 0.153 | 0.141 | 0.228 | 0.133 | 0.227 | 0.169 | 0.148 |
| ChaGo-K-1 | 0.893 | 0.45 | 0.757 | 0.583 | 0.88 | 0.932 | 0.977 | 0.977 | 0.864 | 0.96 | 0.625 | 0.516 | 0.515 | 0.585 | 0.469 | 0.688 | 0.652 | 0.566 | 0.499 | 0.579 |
| NCI-H2228 | 0.343 | 0.45 | 0.381 | – | 0.279 | 0.884 | 0.774 | 0.705 | 0.749 | 0.744 | 0.546 | 0.418 | 0.589 | 0.638 | 0.545 | 0.141 | 0.127 | 0.136 | 0.132 | 0.143 |
| NCI-H2170 | 0.285 | 0.228 | 0.237 | 0.185 | 0.209 | 0.389 | 0.357 | 0.275 | 0.139 | 0.116 | 0.67 | 0.5 | 0.293 | 0.192 | 0.191 | 0.831 | 0.671 | 0.449 | 0.163 | 0.231 |
| EMC-BAC-2 | 0.516 | 0.531 | 0.544 | 0.529 | 0.496 | 0.539 | 0.531 | 0.551 | 0.498 | 0.519 | 0.371 | 0.355 | 0.418 | 0.378 | 0.352 | 1.23 | 1.13 | 1.13 | 1.04 | 1.16 |
| NCI-H23 | 0.543 | 0.52 | 0.501 | 0.424 | 0.398 | 0.561 | 0.469 | 0.482 | 0.486 | 0.448 | 0.585 | 0.611 | 0.54 | 0.599 | 0.47 | 0.226 | – | 0.2 | 0.209 | 0.216 |
| RERF-LC-KJ | 0.543 | 0.507 | 0.414 | 0.35 | 0.392 | 1.05 | 1.02 | 0.984 | 0.85 | 0.825 | 0.527 | 0.439 | 0.448 | 0.336 | 0.318 | 1.19 | 1.11 | 1.19 | 1.1 | 1.08 |
| NCI-H358 | 0.305 | 0.241 | 0.279 | 0.288 | 0.269 | 0.14 | 0.111 | 0.12 | 0.118 | 0.0955 | 0.484 | 0.316 | 0.239 | 0.19 | 0.189 | 0.27 | 0.0409 | 0.189 | 0.101 | 0.125 |
| LC-2-ad | 0.617 | 0.427 | 0.439 | 0.359 | 0.375 | 0.494 | 0.489 | 0.483 | 0.447 | 0.477 | 0.871 | 0.67 | 0.823 | 0.575 | 0.622 | 1.01 | 1.05 | 1.13 | 1.08 | 1.05 |
| HCC-15 | 0.806 | 0.72 | 0.647 | 0.714 | 0.66 | 0.743 | 0.753 | 0.702 | 0.755 | 0.746 | 0.708 | 0.753 | 0.733 | 0.724 | 0.547 | 0.352 | 0.56 | 0.313 | 0.48 | 0.34 |
| NCI-H2405 | 0.445 | 0.47 | 0.611 | 0.473 | 0.57 | 0.555 | 0.562 | 0.57 | 0.513 | 0.508 | 0.65 | 0.67 | 0.712 | 0.603 | 0.701 | 0.578 | 0.695 | 0.648 | 0.388 | 0.441 |
| LXF-289 | 0.829 | 0.701 | 0.695 | 0.706 | 0.777 | 0.604 | 0.561 | 0.553 | 0.486 | 0.533 | 0.82 | 0.606 | 0.62 | 0.602 | 0.67 | 0.748 | 0.604 | 0.719 | 0.656 | 0.564 |
| CAL-12T | 0.389 | 0.393 | 0.347 | 0.447 | 0.27 | 0.51 | 0.209 | 0.213 | 0.172 | 0.161 | 0.75 | 0.456 | 0.392 | 0.307 | 0.374 | 0.865 | 0.595 | 0.361 | 0.279 | 0.27 |
| COR-L23 | 0.689 | 0.762 | 0.854 | 0.955 | 0.853 | 0.329 | 0.308 | 0.317 | 0.274 | 0.339 | 0.941 | 0.829 | 0.755 | 0.739 | 0.78 | 0.804 | 0.603 | 0.773 | 0.644 | 0.68 |
| NCI-H1755 | 0.433 | 0.435 | 0.41 | 0.368 | 0.358 | 0.463 | 0.438 | 0.441 | 0.456 | 0.433 | 0.736 | 0.754 | 0.845 | 0.627 | 0.668 | 0.287 | 0.367 | 0.587 | 0.408 | 0.49 |
| NCI-H1437 | 0.489 | 0.407 | 0.378 | 0.468 | 0.471 | 0.305 | 0.294 | 0.281 | 0.31 | 0.341 | 0.988 | 0.848 | 0.894 | 0.873 | 0.9 | 1.2 | 1.14 | 1.23 | 1.07 | 1.12 |
| NCI-H2085 | 0.486 | 0.438 | 0.459 | 0.494 | 0.435 | 0.445 | 0.448 | 0.42 | 0.36 | 0.419 | 0.71 | 0.61 | 0.541 | 0.366 | 0.366 | 0.405 | 0.396 | 0.409 | 0.32 | 0.296 |
| H3255 | 0.173 | 0.118 | 0.132 | 0.11 | 0.104 | 0.267 | 0.269 | 0.289 | 0.26 | 0.258 | 0.239 | 0.231 | 0.214 | 0.209 | 0.208 | 0.461 | 0.234 | 0.303 | 0.336 | 0.269 |
| NCI-H650 | 0.889 | 0.793 | 1 | 1.09 | 0.924 | 0.343 | 0.34 | 0.395 | 0.331 | 0.336 | 0.557 | 0.475 | 0.566 | 0.516 | 0.503 | 0.841 | 0.816 | 0.791 | 0.814 | 0.788 |
| LCLC-103H | 0.621 | 0.572 | 0.642 | 0.62 | 0.482 | 0.452 | 0.495 | 0.443 | 0.436 | 0.485 | 0.48 | 0.46 | 0.54 | 0.482 | 0.479 | 0.779 | 1.04 | 0.968 | 0.784 | 0.917 |
| LOU-NH91 | 0.492 | 0.49 | 0.541 | 0.498 | 0.501 | 0.533 | 0.535 | 0.538 | 0.564 | 0.538 | 0.491 | 0.404 | 0.477 | 0.4 | 0.518 | 0.319 | 0.295 | 0.325 | 0.326 | 0.311 |
| NCI-H1650 | 0.589 | – | 0.553 | 0.487 | 0.545 | 0.299 | 0.257 | 0.305 | 0.347 | 0.269 | 0.476 | – | 0.557 | 0.439 | 0.397 | 0.181 | – | 0.188 | 0.164 | 0.224 |
| NCI-H3122 | 0.558 | 0.628 | 0.663 | 0.557 | 0.621 | 0.179 | 0.184 | 0.174 | 0.182 | 0.187 | 1.03 | 0.922 | 0.977 | 0.951 | 0.881 | 0.103 | 0.0816 | 0.0898 | 0.0996 | 0.0859 |
| PC-3 [JPC-3] | 0.429 | 0.323 | 0.339 | 0.3 | 0.355 | 0.484 | 0.444 | 0.441 | 0.362 | 0.397 | 0.257 | 0.271 | 0.23 | 0.182 | 0.238 | 0.54 | 0.402 | 0.445 | 0.277 | 0.415 |
| NCI-H1651 | 0.58 | 0.533 | 0.546 | 0.553 | 0.449 | 0.561 | 0.508 | 0.501 | 0.495 | 0.459 | 0.688 | 0.618 | 0.61 | 0.67 | 0.627 | 0.923 | 0.817 | 1.03 | 0.835 | 0.726 |
| NCI-H2087 | 1.12 | 0.907 | 0.86 | 0.904 | 0.72 | 0.232 | 0.185 | 0.226 | 0.253 | 0.191 | 0.731 | 0.507 | 0.652 | 0.753 | 0.383 | 0.178 | 0.163 | 0.21 | 0.167 | 0.161 |
